Laboratory results from the kinase profiling compilation of Christmann-Franck et al. (2016).

Columns and labels:
Experiment in all cases: radiometric filter-binding kinase assay, Kinaseprofiler
GCK (human) = GCK (human) (UniProt Q12851); conditions: ATP 200 µM
CSNK2A2 (human) = CSNK2A2 (human) (UniProt P19784); conditions: ATP 10 µM
CSNK1D (rat) = conditions: accession and sequence are those of the human protein
ZAP70 (human) = ZAP70 (human) (UniProt P43403); conditions: ATP 15 µM
RPS6KA4 KD1 KD2 (human) = RPS6KA4 KD1 KD2 (human) (UniProt O75676); conditions: ATP 45 µM
HIPK3 (human) = HIPK3 (human) (UniProt Q9H422); conditions: ATP 15 µM
GRK7 (human) = GRK7 (human) (UniProt Q8WTQ7); conditions: ATP 15 µM
RPS6KA2 KD1 KD2 (human) = RPS6KA2 KD1 KD2 (human) (UniProt Q15349); conditions: ATP 10 µM
MAPK14 (human) = MAPK14 (human) (UniProt Q16539); conditions: ATP 90 µM
FGFR4 (human) = FGFR4 (human) (UniProt P22455); conditions: ATP 155 µM
CLK2 (human) = CLK2 (human) (UniProt P49760); conditions: ATP 15 µM
IRAK1 (human) = IRAK1 (human) (UniProt P51617); conditions: ATP 45 µM
INSR (human) = INSR (human) (UniProt P06213)
[1] = system: AXL (human), P30530 [Q764R]; conditions: ATP 90 µM
CDK7 CCNH MNAT1 (human) = CDK7 CCNH MNAT1 (human) (UniProt P50613+P51948+P51946); conditions: ATP 90 µM
TYRO3 (human) = TYRO3 (human) (UniProt Q06418); conditions: ATP 45 µM
MAP2K6 (human) = MAP2K6 (human) (UniProt P52564); conditions: ATP 10 µM
SRC (human) = SRC (human) (UniProt P12931); conditions: ATP 200 µM
NEK11 (human) = NEK11 (human) (UniProt Q8NG66); conditions: ATP 200 µM
CAMK1 (human) = CAMK1 (human) (UniProt Q14012); conditions: ATP 200 µM
NEK6 (human) = NEK6 (human) (UniProt Q9HC98); conditions: ATP 45 µM
FES (human) = FES (human) (UniProt P07332); conditions: ATP 45 µM
TBK1 (human) = TBK1 (human) (UniProt Q9UHD2); conditions: ATP 155 µM
KDR (human) = KDR (human) (UniProt P35968); conditions: ATP 90 µM
DAPK3 (human) = DAPK3 (human) (UniProt O43293); conditions: ATP 15 µM
MTOR FKBP1A (human) = MTOR FKBP1A (human) (UniProt P42345+P62942); conditions: ATP 45 µM
PRKCE (human) = PRKCE (human) (UniProt Q02156); conditions: ATP 45 µM
INSRR (human) = INSRR (human) (UniProt P14616); conditions: ATP 200 µM
TAOK2 (human) = TAOK2 (human) (UniProt Q9UL54); conditions: ATP 15 µM
ERBB4 (human) = ERBB4 (human) (UniProt Q15303); conditions: ATP 15 µM
PAK4 (human) = PAK4 (human) (UniProt O96013); conditions: ATP 10 µM
TSSK1B (human) = TSSK1B (human) (UniProt Q9BXA7); conditions: ATP 15 µM

INSR (human), sequence (P06213 whole entry, looked up): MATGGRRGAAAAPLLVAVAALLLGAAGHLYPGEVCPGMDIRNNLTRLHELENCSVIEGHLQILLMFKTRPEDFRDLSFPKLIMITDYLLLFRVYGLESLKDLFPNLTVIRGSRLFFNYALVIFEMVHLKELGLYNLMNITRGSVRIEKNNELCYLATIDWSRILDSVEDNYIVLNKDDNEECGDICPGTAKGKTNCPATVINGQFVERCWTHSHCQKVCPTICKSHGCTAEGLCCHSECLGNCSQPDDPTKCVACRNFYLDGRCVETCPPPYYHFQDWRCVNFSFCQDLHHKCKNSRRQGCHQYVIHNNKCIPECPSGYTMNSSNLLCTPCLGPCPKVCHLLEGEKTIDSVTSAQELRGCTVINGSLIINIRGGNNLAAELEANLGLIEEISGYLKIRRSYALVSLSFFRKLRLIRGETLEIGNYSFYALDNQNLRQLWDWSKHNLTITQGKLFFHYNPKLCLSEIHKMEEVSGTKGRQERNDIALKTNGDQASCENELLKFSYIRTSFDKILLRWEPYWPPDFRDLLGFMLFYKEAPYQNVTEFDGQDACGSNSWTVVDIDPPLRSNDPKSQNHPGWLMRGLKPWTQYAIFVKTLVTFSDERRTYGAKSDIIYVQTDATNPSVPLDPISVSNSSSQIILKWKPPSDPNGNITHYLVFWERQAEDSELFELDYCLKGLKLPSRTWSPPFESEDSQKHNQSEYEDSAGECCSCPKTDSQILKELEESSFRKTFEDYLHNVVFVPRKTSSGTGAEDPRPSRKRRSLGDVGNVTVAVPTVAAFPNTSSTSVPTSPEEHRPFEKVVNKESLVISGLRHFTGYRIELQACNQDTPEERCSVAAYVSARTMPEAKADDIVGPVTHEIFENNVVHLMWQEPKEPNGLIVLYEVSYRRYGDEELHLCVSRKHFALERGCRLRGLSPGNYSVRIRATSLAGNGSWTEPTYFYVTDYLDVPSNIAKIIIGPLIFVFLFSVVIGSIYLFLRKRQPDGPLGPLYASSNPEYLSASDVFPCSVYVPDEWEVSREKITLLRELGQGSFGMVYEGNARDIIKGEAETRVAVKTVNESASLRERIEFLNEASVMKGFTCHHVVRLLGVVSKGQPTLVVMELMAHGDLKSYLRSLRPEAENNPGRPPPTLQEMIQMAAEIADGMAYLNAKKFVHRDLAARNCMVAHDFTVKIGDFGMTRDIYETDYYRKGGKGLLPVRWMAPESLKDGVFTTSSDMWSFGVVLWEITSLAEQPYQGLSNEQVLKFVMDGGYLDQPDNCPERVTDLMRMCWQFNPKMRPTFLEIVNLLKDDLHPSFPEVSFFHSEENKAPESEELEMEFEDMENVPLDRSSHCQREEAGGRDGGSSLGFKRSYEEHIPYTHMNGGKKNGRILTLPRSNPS
FGFR4 (human), sequence (P22455 whole entry, looked up): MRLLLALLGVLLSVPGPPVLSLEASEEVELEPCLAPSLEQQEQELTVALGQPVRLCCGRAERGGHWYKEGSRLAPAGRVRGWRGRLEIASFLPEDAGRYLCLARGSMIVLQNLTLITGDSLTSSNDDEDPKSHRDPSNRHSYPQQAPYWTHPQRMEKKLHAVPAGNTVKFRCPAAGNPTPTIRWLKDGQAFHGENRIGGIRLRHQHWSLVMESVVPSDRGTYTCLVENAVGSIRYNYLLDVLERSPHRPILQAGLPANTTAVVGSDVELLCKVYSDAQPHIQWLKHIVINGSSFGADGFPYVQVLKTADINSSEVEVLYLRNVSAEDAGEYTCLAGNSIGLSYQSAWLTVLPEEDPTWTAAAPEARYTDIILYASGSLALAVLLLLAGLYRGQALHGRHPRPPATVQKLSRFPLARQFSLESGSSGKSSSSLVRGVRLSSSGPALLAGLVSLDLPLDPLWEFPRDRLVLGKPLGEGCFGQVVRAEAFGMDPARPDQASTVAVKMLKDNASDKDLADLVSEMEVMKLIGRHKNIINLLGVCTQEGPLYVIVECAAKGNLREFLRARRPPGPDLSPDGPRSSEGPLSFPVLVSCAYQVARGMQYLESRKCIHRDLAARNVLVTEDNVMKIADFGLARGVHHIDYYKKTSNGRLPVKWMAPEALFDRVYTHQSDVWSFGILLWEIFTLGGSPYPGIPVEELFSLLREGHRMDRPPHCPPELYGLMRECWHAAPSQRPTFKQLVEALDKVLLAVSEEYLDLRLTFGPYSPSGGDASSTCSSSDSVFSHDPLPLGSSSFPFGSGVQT
INSRR (human), sequence (P14616 whole entry, looked up): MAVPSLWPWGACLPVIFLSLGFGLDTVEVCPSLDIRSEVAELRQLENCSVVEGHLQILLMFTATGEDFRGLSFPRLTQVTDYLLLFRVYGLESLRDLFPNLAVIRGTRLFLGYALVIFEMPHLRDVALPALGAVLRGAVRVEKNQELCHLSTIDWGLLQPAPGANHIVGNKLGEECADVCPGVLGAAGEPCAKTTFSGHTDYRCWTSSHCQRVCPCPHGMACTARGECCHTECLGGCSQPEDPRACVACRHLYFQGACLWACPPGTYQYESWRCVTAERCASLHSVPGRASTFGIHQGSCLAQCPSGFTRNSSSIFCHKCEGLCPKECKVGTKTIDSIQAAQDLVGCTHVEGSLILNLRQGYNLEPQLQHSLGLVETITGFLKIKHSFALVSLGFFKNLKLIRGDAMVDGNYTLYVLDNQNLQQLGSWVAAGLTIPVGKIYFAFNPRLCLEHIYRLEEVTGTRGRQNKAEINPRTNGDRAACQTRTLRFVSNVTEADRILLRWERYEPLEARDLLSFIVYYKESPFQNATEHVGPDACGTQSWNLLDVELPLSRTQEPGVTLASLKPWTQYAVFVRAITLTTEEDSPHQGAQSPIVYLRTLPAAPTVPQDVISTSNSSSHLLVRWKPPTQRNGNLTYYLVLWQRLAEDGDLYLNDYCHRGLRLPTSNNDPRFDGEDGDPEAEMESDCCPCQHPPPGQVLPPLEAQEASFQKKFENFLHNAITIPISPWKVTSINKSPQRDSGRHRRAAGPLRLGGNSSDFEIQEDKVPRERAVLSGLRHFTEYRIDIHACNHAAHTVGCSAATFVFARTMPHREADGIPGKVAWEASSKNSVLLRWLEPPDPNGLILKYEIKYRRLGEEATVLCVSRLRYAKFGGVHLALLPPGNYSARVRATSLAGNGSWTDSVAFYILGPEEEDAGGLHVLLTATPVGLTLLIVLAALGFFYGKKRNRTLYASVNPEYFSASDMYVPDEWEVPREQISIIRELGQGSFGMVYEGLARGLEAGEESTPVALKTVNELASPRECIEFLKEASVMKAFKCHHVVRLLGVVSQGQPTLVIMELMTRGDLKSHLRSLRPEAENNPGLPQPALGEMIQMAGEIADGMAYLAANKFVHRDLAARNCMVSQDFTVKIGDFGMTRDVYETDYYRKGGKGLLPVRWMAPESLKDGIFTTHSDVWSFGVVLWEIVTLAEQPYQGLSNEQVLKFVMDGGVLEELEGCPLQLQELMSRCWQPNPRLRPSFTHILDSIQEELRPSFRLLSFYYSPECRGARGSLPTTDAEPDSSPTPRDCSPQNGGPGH
TYRO3 (human), sequence (Q06418 whole entry, looked up): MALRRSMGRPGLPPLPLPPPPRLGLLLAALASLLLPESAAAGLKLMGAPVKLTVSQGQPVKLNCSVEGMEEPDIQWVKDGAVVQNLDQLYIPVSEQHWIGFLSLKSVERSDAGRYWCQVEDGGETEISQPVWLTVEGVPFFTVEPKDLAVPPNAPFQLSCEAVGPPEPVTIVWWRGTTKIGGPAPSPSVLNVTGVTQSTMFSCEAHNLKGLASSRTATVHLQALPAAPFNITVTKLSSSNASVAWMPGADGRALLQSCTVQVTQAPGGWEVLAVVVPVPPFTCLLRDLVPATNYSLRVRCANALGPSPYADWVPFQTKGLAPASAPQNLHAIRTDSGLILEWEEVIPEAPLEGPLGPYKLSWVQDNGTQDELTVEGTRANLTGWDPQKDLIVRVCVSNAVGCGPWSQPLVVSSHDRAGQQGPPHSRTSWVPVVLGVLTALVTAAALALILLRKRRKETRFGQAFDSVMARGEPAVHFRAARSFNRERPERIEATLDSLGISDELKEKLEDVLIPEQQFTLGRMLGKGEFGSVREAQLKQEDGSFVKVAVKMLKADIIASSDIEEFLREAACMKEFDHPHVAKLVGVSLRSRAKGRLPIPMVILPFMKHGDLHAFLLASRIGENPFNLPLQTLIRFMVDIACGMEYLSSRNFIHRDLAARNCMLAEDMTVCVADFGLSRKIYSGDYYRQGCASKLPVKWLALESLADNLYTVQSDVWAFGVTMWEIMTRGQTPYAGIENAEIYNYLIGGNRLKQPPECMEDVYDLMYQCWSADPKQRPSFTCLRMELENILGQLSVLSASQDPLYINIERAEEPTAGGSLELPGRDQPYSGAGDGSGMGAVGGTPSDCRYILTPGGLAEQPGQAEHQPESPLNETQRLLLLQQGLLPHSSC
DAPK3 (human), sequence (O43293 whole entry, looked up): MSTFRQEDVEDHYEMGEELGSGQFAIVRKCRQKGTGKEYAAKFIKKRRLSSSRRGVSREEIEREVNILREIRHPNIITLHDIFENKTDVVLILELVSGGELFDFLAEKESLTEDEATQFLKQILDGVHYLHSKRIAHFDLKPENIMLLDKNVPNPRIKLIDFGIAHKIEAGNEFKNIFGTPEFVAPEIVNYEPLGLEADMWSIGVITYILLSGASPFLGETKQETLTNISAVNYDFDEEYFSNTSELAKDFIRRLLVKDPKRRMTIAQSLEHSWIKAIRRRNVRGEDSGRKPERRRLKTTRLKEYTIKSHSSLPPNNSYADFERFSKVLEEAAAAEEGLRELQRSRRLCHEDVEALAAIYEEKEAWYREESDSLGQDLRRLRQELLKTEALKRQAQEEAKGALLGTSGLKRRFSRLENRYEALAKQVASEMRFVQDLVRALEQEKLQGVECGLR
MTOR FKBP1A (human), sequence (P62942 whole entry, looked up, other chains not shown): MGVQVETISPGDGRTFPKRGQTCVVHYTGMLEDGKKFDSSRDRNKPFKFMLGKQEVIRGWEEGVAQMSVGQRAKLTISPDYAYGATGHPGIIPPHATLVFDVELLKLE

O=C1Nc2ccccc2/C1=C1\Nc2ccccc2\C1=N/O
residual activity (GCK (human); compound 1.0 µM): 13% | residual activity (GCK (human); compound 10.0 µM): 1% | residual activity (CSNK2A2 (human); compound 1.0 µM): 102% | residual activity (CSNK2A2 (human); compound 10.0 µM): 58% | residual activity (CSNK1D (rat); compound 1.0 µM): 14% | residual activity (CSNK1D (rat); compound 10.0 µM): 4% | residual activity (ZAP70 (human); compound 1.0 µM): 79% | residual activity (ZAP70 (human); compound 10.0 µM): 91% | residual activity (RPS6KA4 KD1 KD2 (human); compound 1.0 µM): 32% | residual activity (RPS6KA4 KD1 KD2 (human); compound 10.0 µM): 4% | residual activity (HIPK3 (human); compound 1.0 µM): 88% | residual activity (HIPK3 (human); compound 10.0 µM): 19% | residual activity (GRK7 (human); compound 1.0 µM): 73% | residual activity (GRK7 (human); compound 10.0 µM): 18% | residual activity (RPS6KA2 KD1 KD2 (human); compound 1.0 µM): 19% | residual activity (RPS6KA2 KD1 KD2 (human); compound 10.0 µM): 4% | residual activity (MAPK14 (human); compound 1.0 µM): 94% | residual activity (MAPK14 (human); compound 10.0 µM): 78% | residual activity (FGFR4 (human); compound 1.0 µM): 100% | residual activity (FGFR4 (human); compound 10.0 µM): 45% | residual activity (CLK2 (human); compound 1.0 µM): 14% | residual activity (CLK2 (human); compound 10.0 µM): 4% | residual activity (IRAK1 (human); compound 1.0 µM): 60% | residual activity (IRAK1 (human); compound 10.0 µM): 11% | residual activity (INSR (human); compound 1.0 µM, ATP 45 µM): 35% | residual activity (INSR (human); compound 1.0 µM, ATP 200 µM): 17% | residual activity (INSR (human); compound 10.0 µM, ATP 45 µM): 19% | residual activity (INSR (human); compound 10.0 µM, ATP 200 µM): 10% | residual activity ([1]; compound 1.0 µM): 17% | residual activity ([1]; compound 10.0 µM): 8% | residual activity (CDK7 CCNH MNAT1 (human); compound 1.0 µM): 42% | residual activity (CDK7 CCNH MNAT1 (human); compound 10.0 µM): 16% | residual activity (TYRO3 (human); compound 1.0 µM): 62% | residual activity (TYRO3 (human); compound 10.0 µM): 15% | residual activity (MAP2K6 (human); compound 1.0 µM): 63% | residual activity (MAP2K6 (human); compound 10.0 µM): 40% | residual activity (SRC (human); compound 1.0 µM): 35% | residual activity (SRC (human); compound 10.0 µM): 5% | residual activity (NEK11 (human); compound 1.0 µM): 70% | residual activity (NEK11 (human); compound 10.0 µM): 18% | residual activity (CAMK1 (human); compound 1.0 µM): 72% | residual activity (CAMK1 (human); compound 10.0 µM): 21% | residual activity (NEK6 (human); compound 1.0 µM): 91% | residual activity (NEK6 (human); compound 10.0 µM): 103% | residual activity (FES (human); compound 1.0 µM): 72% | residual activity (FES (human); compound 10.0 µM): 30% | residual activity (TBK1 (human); compound 1.0 µM): 9% | residual activity (TBK1 (human); compound 10.0 µM): 1% | residual activity (KDR (human); compound 1.0 µM): 4% | residual activity (KDR (human); compound 10.0 µM): 1% | residual activity (DAPK3 (human); compound 1.0 µM): 81% | residual activity (DAPK3 (human); compound 10.0 µM): 37% | residual activity (MTOR FKBP1A (human); compound 1.0 µM): 117% | residual activity (MTOR FKBP1A (human); compound 10.0 µM): 89% | residual activity (PRKCE (human); compound 1.0 µM): 106% | residual activity (PRKCE (human); compound 10.0 µM): 91% | residual activity (INSRR (human); compound 1.0 µM): 2% | residual activity (INSRR (human); compound 10.0 µM): 1% | residual activity (TAOK2 (human); compound 1.0 µM): 75% | residual activity (TAOK2 (human); compound 10.0 µM): 26% | residual activity (ERBB4 (human); compound 1.0 µM): 107% | residual activity (ERBB4 (human); compound 10.0 µM): 99% | residual activity (PAK4 (human); compound 1.0 µM): 55% | residual activity (PAK4 (human); compound 10.0 µM): 14% | residual activity (TSSK1B (human); compound 1.0 µM): 78% | residual activity (TSSK1B (human); compound 10.0 µM): 53%
